The results in this text go back to patent US20230073777A1, “CYCLIC-AMP RESPONSE ELEMENT BINDING PROTEIN (CBP) AND/OR ADENOVIRAL E1A BINDING PROTEIN OF 300 KDA (P300) DEGRADATION COMPOUNDS AND METHODS OF USE” (CULLGEN (SHANGHAI), INC., priority 2019, published 2023).

In the first test the test system is LNCaP cells. The test can be described thus: LNCaP cell viability assay (CellTiter-Glo). To be noted: Homo sapiens, 72 h; LNCaP prostate cancer cell viability inhibition, 3 days, CellTiter-Glo (Table 2). It counts as cell-based. The protocol: LNCaP cells seeded in 96-well plates were treated with 10 μM GNE-781 or selected bivalent compounds, i.e. P-001, P-002, and P-019, following a 12-point 3-fold serial dilution. Three days after treatment, cell viability was determined using the CellTiter-Glo kit (Promega) following manufacturer's instructions. Cell viability was normalized to the mean values of 3 replicates of untreated cells. Dose-dependent response was analyzed following the least-squares non-linear regression method using the GraphPad Prism 5.0 software.
LNCaP cells were treated with GNE-781 or selected bivalent compounds for 3 days at indicated concentrations following a 3-fold serial dilution.
Cells were seeded at a density of 5000 cells per well in 96-well assay plates and treated with test compounds following a 12-point 3-fold serial dilution. Three days later, cell viability was determined using the CellTiter-Glo assay kit according to the manufacturer's instructions. The dose-response curves were determined and IC50 values were calculated using the GraphPad Prism software following a nonlinear regression (least squares fit) method.
(ATP-based viability assays read luminescence as a measure of living cells.)
Broadly, the IC50 is the concentration that gives 50% inhibition. Regarding `CNC(=O)N1CCc2c(c(N3CCCc4cc(-c5cnn(C)c5)c(C(F)F)cc43)nn2C2CCN(C(=O)CNc3cccc4c3C(=O)N(C3CCC(=O)NC3=O)C4=O)CC2)C1` (stereo not drawn) [P-013], the midpoint of inhibition, the IC50, lay at 105 nM.

Still in this test, the particulars now being: Homo sapiens, 72 h; LNCaP prostate cancer cell viability inhibition, 3 days, CellTiter-Glo (Table 3).
As to `CNC(=O)N1CCc2c(c(N3CCCc4cc(-c5cnn(CC(=O)NCCOCCOCC(=O)N[C@H](C(=O)N6C[C@H](O)CC6C(=O)NCc6ccc(-c7scnc7C)cc6)C(C)(C)C)c5)c(C(F)F)cc43)nn2C2CCOCC2)C1` (stereo in doubt) [P-083, 3-(7-(Difluoromethyl)-6-(1-((S)-13-((2S,4R)-4-hydroxy-2-((4-(4-methylthiazol-5-yl)benzyl)carbamoyl)pyrrolidine-1-carbonyl)-14,14-dimethyl-2,11-dioxo-6,9-dioxa-3,12-diazapentadecyl)-1H-pyrazol-4-yl)-3,4-dihydroquinolin-1(2H)-yl)-N-methyl-1-(tetrahydro-2H-pyran-4-yl)-1,4,6,7-tetrahydro-5H-pyrazolo[4,3-c]pyridine-5-carboxamide], the IC50 was above 10000 nM.

In the case of `CC(=O)N1CCc2c(c(N3CCCc4cc(-c5cnn(C)c5)c(C(F)F)cc43)nn2C2CCN(CCN3CCN(Cc4cccc5c4C(=O)N(C4CCC(=O)NC4=O)C5=O)CC3)CC2)C1` (stereo not drawn) [P-145, 4-((4-(2-(4-(5-Acetyl-3-(7-(difluoromethyl)-6-(1-methyl-1H-pyrazol-4-yl)-3,4-dihydroquinolin-1(2H)-yl)-4,5,6,7-tetrahydro-1H-pyrazolo[4,3-c]pyridin-1-yl)piperidin-1-yl)ethyl)piperazin-1-yl)methyl)-2-(2,6-dioxopiperidin-3-yl)isoindoline-1,3-dione], the IC50 is above 1000 nM.

Compound `CC(=O)N1CCc2c(c(N3CCCc4cc(-c5cnn(C)c5)c(C(F)F)cc43)nn2C2CCN(C3CCN(CCOc4cccc5c4C(=O)N(C4CCC(=O)NC4=O)C5=O)CC3)CC2)C1` (stereo not drawn) [P-134, 4-(2-(4-(5-Acetyl-3-(7-(difluoromethyl)-6-(1-methyl-1H-pyrazol-4-yl)-3,4-dihydroquinolin-1(2H)-yl)-4,5,6,7-tetrahydro-1H-pyrazolo[4,3-c]pyridin-1-yl)-[1,4′-bipiperidin]-1′-yl)ethoxy)-2-(2,6-dioxopiperidin-3-yl)isoindoline-1,3-dione] showed an IC50 above 500 nM.

`CNC(=O)N1CCc2c(c(N3CCCc4cc(-c5cnn(C)c5)c(C(F)F)cc43)nn2C2CCN(C(=O)CCCCC#Cc3cccc4c3C(=O)N(C3CCC(=O)NC3=O)C4)CC2)C1` (stereo not drawn) [P-094, 3-(7-(Difluoromethyl)-6-(1-methyl-1H-pyrazol-4-yl)-3,4-dihydroquinolin-1(2H)-yl)-1-(1-(7-(2-(2,6-dioxopiperidin-3-yl)-3-oxoisoindolin-4-yl)hept-6-ynoyl)piperidin-4-yl)-N-methyl-1,4,6,7-tetrahydro-5H-pyrazolo[4,3-c]pyridine-5-carboxamide] registered an IC50 of 228 nM.

For the compound `CNC(=O)N1CCc2c(c(N3CCCc4cc(-c5cnn(CC(=O)NCCOCCOCCOCCOCCOCCC(=O)N[C@H](C(=O)N6C[C@H](O)CC6C(=O)NCc6ccc(-c7scnc7C)cc6)C(C)(C)C)c5)c(C(F)F)cc43)nn2C2CCOCC2)C1` (stereo in doubt) [P-082, 3-(7-(Difluoromethyl)-6-(1-((S)-23-((2S,4R)-4-hydroxy-2-((4-(4-methylthiazol-5-yl)benzyl)carbamoyl)pyrrolidine-1-carbonyl)-24,24-dimethyl-2,21-dioxo-6,9,12,15,18-pentaoxa-3,22-diazapentacosyl)-1H-pyrazol-4-yl)-3,4-dihydroquinolin-1(2H)-yl)-N-methyl-1-(tetrahydro-2H-pyran-4-yl)-1,4,6,7-tetrahydro-5H-pyrazolo[4,3-c]pyridine-5-carboxamide], the IC50 is above 10000 nM.

As for `CC(=O)N1CCc2c(c(N3CCCc4cc(-c5cnn(C)c5)c(C(F)F)cc43)nn2C2CCN(C3CN(CCCOc4cccc5c4C(=O)N(C4CCC(=O)NC4=O)C5=O)C3)CC2)C1` (stereo not drawn) [P-140, 4-(3-(3-(4-(5-Acetyl-3-(7-(difluoromethyl)-6-(1-methyl-1H-pyrazol-4-yl)-3,4-dihydroquinolin-1(2H)-yl)-4,5,6,7-tetrahydro-1H-pyrazolo[4,3-c]pyridin-1-yl)piperidin-1-yl)azetidin-1-yl)propoxy)-2-(2,6-dioxopiperidin-3-yl)isoindoline-1,3-dione], the IC50 is above 500 nM.

Take `CC(=O)N1CCc2c(c(N3CCCc4cc(-c5cnn(C)c5)c(C(F)F)cc43)nn2C2CCN(CCCCCC(=O)Nc3cccc4c3C(=O)N(C3CCC(=O)NC3=O)C4=O)CC2)C1` (stereo not drawn) [P-136, 6-(4-(5-Acetyl-3-(7-(difluoromethyl)-6-(1-methyl-1H-pyrazol-4-yl)-3,4-dihydroquinolin-1(2H)-yl)-4,5,6,7-tetrahydro-1H-pyrazolo[4,3-c]pyridin-1-yl)piperidin-1-yl)-N-(2-(2,6-dioxopiperidin-3-yl)-1,3-dioxoisoindolin-4-yl)hexanamide]: the IC50 was above 500 nM.

Consider `CC(=O)N1CCc2c(c(N3CCCc4cc(-c5cnn(C)c5)c(C(F)F)cc43)nn2C2CCN(C(=O)CN3CCN(Cc4cccc5c4C(=O)N(C4CCC(=O)NC4=O)C5=O)CC3)CC2)C1` (stereo not drawn) [P-138, 4-((4-(2-(4-(5-Acetyl-3-(7-(difluoromethyl)-6-(1-methyl-1H-pyrazol-4-yl)-3,4-dihydroquinolin-1(2H)-yl)-4,5,6,7-tetrahydro-1H-pyrazolo[4,3-c]pyridin-1-yl)piperidin-1-yl)-2-oxoethyl)piperazin-1-yl)methyl)-2-(2,6-dioxopiperidin-3-yl)isoindoline-1,3-dione], for which the IC50 was above 500 nM.

For the compound `CNC(=O)N1CCc2c(c(N3CCCc4cc(-c5cnn(C)c5)c(C(F)F)cc43)nn2C2CCN(C(=O)CN3CCN(Cc4cccc5c4C(=O)N(C4CCC(=O)NC4=O)C5=O)CC3)CC2)C1` (stereo not drawn) [P-137, 3-(7-(Difluoromethyl)-6-(1-methyl-1H-pyrazol-4-yl)-3,4-dihydroquinolin-1(2H)-yl)-1-(1-(2-(4-((2-(2,6-dioxopiperidin-3-yl)-1,3-dioxoisoindolin-4-yl)methyl)piperazin-1-yl)acetyl)piperidin-4-yl)-N-methyl-1,4,6,7-tetrahydro-5H-pyrazolo[4,3-c]pyridine-5-carboxamide], the IC50 is above 500 nM.

`CNC(=O)N1CCc2c(c(N3CCCc4cc(-c5cnn(C)c5)c(C(F)F)cc43)nn2C2CCN(C(=O)CN3CCC(Nc4cccc5c4C(=O)N(C4CCC(=O)NC4=O)C5=O)CC3)CC2)C1` (stereo not drawn) [P-101, 3-(7-(Difluoromethyl)-6-(1-methyl-1H-pyrazol-4-yl)-3,4-dihydroquinolin-1(2H)-yl)-1-(1-(2-(4-((2-(2,6-dioxopiperidin-3-yl)-1,3-dioxoisoindolin-4-yl)amino)piperidin-1-yl)acetyl)piperidin-4-yl)-N-methyl-1,4,6,7-tetrahydro-5H-pyrazolo[4,3-c]pyridine-5-carboxamide]: the IC50 is above 1000 nM.

Regarding `CNC(=O)N1CCc2c(c(N3CCCc4cc(-c5cnn(C)c5)c(C(F)F)cc43)nn2C2CCN(C(=O)CN3CCC(C#Cc4cccc5c4C(=O)N(C4CCC(=O)NC4=O)C5=O)CC3)CC2)C1` (stereo not drawn) [P-103, 3-(7-(Difluoromethyl)-6-(1-methyl-1H-pyrazol-4-yl)-3,4-dihydroquinolin-1(2H)-yl)-1-(1-(2-(4-((2-(2,6-dioxopiperidin-3-yl)-1,3-dioxoisoindolin-4-yl)ethynyl)piperidin-1-yl)acetyl)piperidin-4-yl)-N-methyl-1,4,6,7-tetrahydro-5H-pyrazolo[4,3-c]pyridine-5-carboxamide], 146 nM corresponded to half-maximal inhibition (IC50).
